Results as given in a melting point compilation (Tetko et al.; mined from patent text by program, amines drawn as free bases though some values may be those of a salt).

First: CCSc1ccc(-c2coc3ccc(-c4nnc(C)o4)cc23)cc1F
Second: Cc1nnc(-c2ccc3occ(-c4ccc(C(F)(F)F)cc4)c3c2)o1
The melting point of the first is lower: 115 to 116 °C for the first, 190 to 191 °C for the second.

First: O=C1Nc2ccccc2N(C(=O)C2CC2)c2cscc21
Second: O=C(CNc1ccc2[nH]c(=O)sc2c1)N1CCC(Cc2ccc(F)cc2)CC1
The melting point of the first is higher: 245 to 247 °C for the first, 149 to 155 °C for the second.

First: NS(=O)(=O)c1ccc(-c2[nH]c3ccc(Cl)cc3c2-c2cccc(Cl)c2)cc1
Second: Cc1ccc(-c2cccn2-c2ccc(S(C)(=O)=O)cc2)cc1
The melting point of the first is higher: 249 to 251 °C for the first, 186 to 187 °C for the second.

Compared with `Cc1ccc(NCC2CCN(C3CCCC3)CC2)c(C(=O)Nc2ccc(Cl)cn2)c1`, `COc1cc(N2CCC(N3CCCN(CCO)CC3)CC2)ccc1Nc1ncc2ccc(-c3ccccc3N(C)S(C)(=O)=O)n2n1` is lower in melting point: 173 to 175 °C for the first, 91 to 104 °C for the second.

First: CCCCCCCCCCCCCCCCOc1ccc(OCC(=O)NCc2ccccn2)cc1
Second: CCCCCCCCCCCCCCCCOc1ccc(C(=O)O)o1
The melting point of the first is lower: 68 to 69 °C for the first, 118 to 119 °C for the second.

Compared with `COc1ncc(Cl)cc1C1(O)CCN(CC23CC(c4ccccc42)c2ccccc23)CC1`, `COc1ccc2c(-c3ccccc3)c(C(=O)c3ccccc3)sc2c1` is lower in melting point: 195 °C for the first, 94 to 95.5 °C for the second.

Compared with `CNS(=O)(=O)Cc1ccc(C)cc1`, `Cc1noc(NS(=O)(=O)c2ccc(C(C)C)cc2)c1Br` is higher in melting point: 49 to 52 °C for the first, 130 to 133 °C for the second.

Compared with `O=C(Cc1cccc(C(F)(F)F)c1)c1c(O)c2cccnc2n(-c2ccccc2)c1=O`, `O=C(O)Cc1ccc(CNC(=O)C2Cc3ccccc3N2S(=O)(=O)c2ccc(-c3cccc(C(F)(F)F)c3)cc2)c(Cl)c1` (stereo unspecified) is lower in melting point: 201 to 203 °C for the first, 95 to 106 °C for the second.

Compared with `CCN(C(=O)c1ccccc1C(=O)c1ccccc1)C(C)(C)CNS(=O)(=O)c1ccc(C)cc1`, `COc1ccc(S(=O)(=O)n2ccc3ccnc(-c4ccccc4)c32)cc1` is lower in melting point: 157 to 160 °C for the first, 149 to 151 °C for the second.

First: CCC1OC(Cn2cncn2)(c2ccc(Cl)cc2Cl)OC1C (stereo unspecified)
Second: CC#CC(O)(Cn1cncn1)c1ccc(Oc2ccc(Cl)cc2)cc1C(F)(F)F (stereo unspecified)
The melting point of the first is lower: 109 to 113 °C for the first, 137 °C for the second.

`CC1(O)CC(=O)OC(c2ccc(OCc3ccccc3)cc2)C1Br` (stereo unspecified) and `COCc1c(C(=O)OC(C)(C)C)ncc2[nH]c3ccc(OCc4ccccc4)cc3c12` cannot be ordered by melting point: 157 to 162 °C for the first, 160 to 167 °C for the second.

First: CC(C)(C)OC(=O)Nc1cc(Cl)c(I)cc1[N+](=O)[O-]
Second: Cc1ccc(C(O)=C(C#N)C(=O)C(C)(C)C)c([N+](=O)[O-])c1
The melting point of the first is lower: 82 to 84 °C for the first, 99 to 102 °C for the second.

First: CCOC(=O)C(OCc1ccc(Cl)cc1)(C(F)(F)F)C(F)(F)F
Second: CCOC(=O)CCc1nc(-c2ccc(Cl)cc2)co1
The melting point of the first is lower: 33 °C for the first, 65 to 66 °C for the second.

Compared with `CC(C)c1cccc(C(C)C)c1NC(=O)CNCC1(Nc2ccccc2)CCCCC1`, `COCCNC(=O)Nc1c(C)c(C)c2c(c1C)C(c1ccc(C(C)C)cc1)CO2` (stereo unspecified) is higher in melting point: 104 to 106 °C for the first, 172 to 173 °C for the second.

Compared with `CC1C(=O)NC(C)(C)N1C(=O)CNC(=O)CN1CC(O)CC1=O` (stereo unspecified), `COC(=O)[C@]12OC(=O)C[C@H]1S[C@@H]1[C@H](NC(=O)COc3ccccc3)C(=O)N12` is lower in melting point: 218 to 220 °C for the first, 182 to 184 °C for the second.

Compared with `CCC1=Nc2cc(Cl)ccc2CC(c2sccc2C)N1C` (stereo unspecified), `Cc1cnc(OCC(O)CNC(C)(C)C)c2cc(Cl)ccc12` (stereo unspecified) is higher in melting point: 94 to 96 °C for the first, 116 to 117 °C for the second.

First: CC1(C)C2CCC(C2)C1(C)F (stereo unspecified)
Second: CSC1=C(Sc2ccc(C)cc2)CC2C3CCC4=CC(=O)C=CC4(C)C3(F)C(O)CC12C (stereo unspecified)
The melting point of the first is lower: 93 to 94 °C for the first, 205 to 206 °C for the second.

First: Cc1cc2c(-c3cccc(C=O)c3)c(CC(=O)Nc3ccc(F)cc3C(F)(F)F)c(=O)oc2cc1Cl
Second: Cc1cc(C)cc(-c2cc(O)c(Sc3ccccc3)c(=O)o2)c1
The melting point of the first is higher: 214 to 215 °C for the first, 210 to 211 °C for the second.

Compared with `CC1(C2CCCC2)Cc2cc(OCCCCC(=O)O)c(Cl)c(Cl)c2C1=O` (stereo unspecified), `COc1ccc(C=CC(=O)O)cc1-c1cc2c(cc1OCCCCCCCC(=O)O)C(C)(C)CCC2(C)C` is higher in melting point: 106 to 108 °C for the first, 212 to 214 °C for the second.

First: CNC(=NS(C)(=O)=O)NCCCCc1nc(NC(N)=NCC(F)(F)F)sc1C
Second: CCc1cccc(CC(=O)O)c1OCCCc1cn(-c2ccc(C(F)(F)F)nn2)nc1C(C)C
The melting point of the first is higher: 165 to 166 °C for the first, 126 to 127 °C for the second.

First: O=C1O[C@@H](CNC(=S)C(F)F)CN1c1ccc(N2CCS(=O)(=O)CC2)c(F)c1
Second: CC(C)C(=O)NC[C@H]1CN(c2ccc3c(c2)CCCc2cnoc2-3)C(=O)O1
The melting point of the first is lower: 146 to 147 °C for the first, 187 to 193 °C for the second.

First: CNC(=O)C(c1ccc(F)cc1)c1ccc(F)cc1
Second: O=C(O)c1cc(NCc2ccc(F)cc2)ccc1O
The melting point of the first is lower: 179 to 180 °C for the first, > 210 °C for the second.

Compared with `COc1ccc(CCNC(=O)C(F)(F)F)c2c1NC(=O)C2`, `O=C(NCC(=O)C(F)(F)F)c1cnc(OCC(F)(F)F)c(-c2ccc(Cl)c(Cl)c2)c1` is lower in melting point: 175 to 178 °C for the first, 122 to 124 °C for the second.

First: O=C(O)c1cc2cccnc2[nH]1
Second: Cn1nc(-c2ccc(Cl)c(Cl)c2)cc1C(=O)O
The melting point of the first is higher: > 260 °C for the first, 252 to 256 °C for the second.

First: Cc1cc(O)c(C23CC4CC(CC(C4)C2)C3)cc1Br
Second: Cc1c(F)c(N2CCNC(C)C2)c(F)c2c1c(=O)c(C(=O)O)cn2C1CC1 (stereo unspecified)
The melting point of the first is lower: 155 to 156 °C for the first, 187 to 188 °C for the second.

First: CC1CC(=O)NN=C1c1ccc(NC(=O)C(C)(C)C#N)cc1 (stereo unspecified)
Second: CC(=O)Nc1ccc2c(c1)CC2OC#N (stereo unspecified)
The melting point of the first is higher: 225 to 227 °C for the first, 163 to 168 °C for the second.

First: O=CC(Nc1ccc2c(c1)OCC(=O)N2)N1CCC(Cc2ccc(F)cc2)CC1 (stereo unspecified)
Second: NC(=O)c1ccnc(N2CCN(Cc3ccc(F)cc3)C2=O)c1
The melting point of the first is lower: 156 to 161 °C for the first, 206 to 208 °C for the second.

First: CC(C)C(NC(=O)OCc1cccnc1)C(=O)NC(Cc1ccccc1)C(O)C(O)C(Cc1ccccc1)NC(=O)C(NC(=O)OCc1cccnc1)C(C)C (stereo unspecified)
Second: O=C(CCCCCCC(c1ccccc1)(c1ccccc1)c1ccccc1)NO
The melting point of the first is higher: 202 to 207 °C for the first, 100 to 103 °C for the second.

Compared with `CC(C(=O)O)C(=O)c1ncc(Cl)cc1F` (stereo unspecified), `Cn1nccc1OCc1c(S(C)(=O)=O)ccc(C(=O)O)c1Cl` is higher in melting point: 101 to 102 °C for the first, 197 °C for the second.

First: CCc1ccc(C2COc3c(C)c(C)c(NC(=O)CC(C)(C)C)c(C)c32)cc1 (stereo unspecified)
Second: COc1cc2c(c3c1OC(C)(C)C3)C(c1ccc(=O)n(Cc3ccc(C(N)=O)cc3)c1)=NC(C)(C)C2
The melting point of the first is lower: 162 to 163 °C for the first, 262 to 266 °C for the second.

`O=C(c1ccccc1)c1cc([N+](=O)[O-])ccc1-n1nc(CO)cc1CO` and `O=C(Nc1cccnc1NCc1ccc(Cl)cc1)c1ccccc1[N+](=O)[O-]` fall in the same range of melting point: 145 to 147 °C for the first, 145 to 147 °C for the second.

First: Cc1cc(O)n2nc(S(=O)(=O)Nc3c(Cl)cccc3Cl)nc2n1
Second: COc1cc(Nc2c(C#N)cnc3cc(-n4cccc4)c(OC)cc23)c(Cl)cc1Cl
The melting point of the first is higher: 302 °C for the first, 229 to 230 °C for the second.

First: O=S1(=O)NCNc2c(Cl)cc(Cl)cc21
Second: Cc1cc(F)cc2[nH]c(=O)c(=O)[nH]c12
The melting point of the first is lower: 149 to 151 °C for the first, > 300 °C for the second.

First: N#CC1CN1C(=O)c1ccc(Cl)nn1 (stereo unspecified)
Second: CNC1=NN(c2ccc(Cl)cc2)C(C)C1 (stereo unspecified)
The melting point of the first is higher: 109 to 115 °C for the first, 102 to 103 °C for the second.

First: CC(=O)N1CCC(O)(C(=O)c2ccc(F)cc2)CC1
Second: OCC1CCN(CC(O)c2ccc(F)cc2)CC1 (stereo unspecified)
The melting point of the first is higher: 146 to 149 °C for the first, 113 °C for the second.

First: O=C(O)c1ccc(OCCCCCCO)cc1
Second: COc1ccc(C(=O)OC2C=C(C)C(=O)CC(C)(C)C2O)cc1 (stereo unspecified)
The melting point of the first is higher: 132 to 135 °C for the first, 108 to 110 °C for the second.

First: COc1cc(Br)c(Br)cc1N1CCN(CCCNc2c(C)c(=O)n(C)c(=O)n2C)CC1
Second: COc1cc(CO)ccc1OCc1nc(N2CCCCC2)sc1C
The melting point of the first is higher: 153 to 155 °C for the first, 92 to 93 °C for the second.

First: CC1N=C2N(Cc3ccc(Cl)cc3)c3[nH]cnc3C(=O)N2C1C (stereo unspecified)
Second: COc1ccc(C(=O)c2ccc(-c3ccc(Cl)cc3)nc2)cc1OC
The melting point of the first is higher: 252 to 254 °C for the first, 168 to 170 °C for the second.

First: CC(C)(C)OC(=O)NCCOc1noc2cccc(C#N)c12
Second: COCCOc1cc(NC(=O)OC(C)(C)C)c(N)cc1C#Cc1ccccc1
The melting point of the first is higher: 116 to 117 °C for the first, 105 to 107 °C for the second.

Compared with `C#CCn1cncc1CO`, `Cc1cnc(CO)c(Cl)c1N1CCOCC1` is lower in melting point: 91 to 92.5 °C for the first, 54 to 55 °C for the second.

`COc1cc2c(O)cnnc2cc1OCc1ccccc1` and `COc1cc2cc(CO)nc(-c3ccc([N+](=O)[O-])cc3)c2cc1OC` cannot be ordered by melting point: 262 to 264 °C for the first, 260 to 263 °C for the second.

First: CCC(=O)c1c(O)oc(=O)c(C(=O)CC)c1O
Second: CCN(CC)CCNC(=O)c1nc(Cl)c(N)nc1OC
The melting point of the first is lower: 114 to 115 °C for the first, 158 °C for the second.

First: NC(c1ccc2c(c1)OCO2)P(O)O (stereo unspecified)
Second: CCOC(=O)c1csnc1-c1cccc([N+](=O)[O-])c1
The melting point of the first is higher: 235 to 236 °C for the first, 132 to 136 °C for the second.

Compared with `Cc1cc(-c2cc(C(F)F)nn2-c2ccc(S(C)(=O)=O)c(F)c2)ccc1-c1nccs1`, `Nc1cc2cccnc2c(-c2cccc([N+](=O)[O-])c2)n1` is higher in melting point: 123 °C for the first, 221 to 223 °C for the second.

First: N#Cc1cc2c(s1)-c1ccccc1OC2c1ccccc1 (stereo unspecified)
Second: Clc1cc2c(cc1Cl)C(Cl)Cc1ccccc1S2 (stereo unspecified)
The melting point of the first is higher: 138 to 140 °C for the first, 130 to 131 °C for the second.

Compared with `CCCCCCN1N=C(c2ccc(OC)c(OC)c2)C2CC=CCC2C1=O` (stereo unspecified), `COc1ccc(CN2C(=O)[C@@H](Cl)[C@H]2[C@@H]2COC(C)(C)O2)c(OC)c1` is higher in melting point: 74 to 75 °C for the first, 140 to 142 °C for the second.

First: CCOc1cc(CCNC(=S)Nc2nccs2)ccc1OC
Second: Cc1cc(C)nc([NH+]([O-])C(=O)Cc2ccsc2)c1 (stereo unspecified)
The melting point of the first is lower: 150 to 152 °C for the first, 154 °C for the second.

Compared with `Cc1ccc(N2CCN(c3cccc(Cl)c3)C2C(Cl)(Cl)Cl)cc1` (stereo unspecified), `CC(=O)N1N=C(c2ccc([N+](=O)[O-])cc2)c2cc(Br)ccc2CC1C` (stereo unspecified) is higher in melting point: 34 to 36 °C for the first, 228 to 230 °C for the second.

Compared with `N#CC1=C(C2CCCCC2=O)Nc2n[nH]cc2C1c1cccc2nonc12` (stereo unspecified), `COC(=O)Nc1nc2cc(S(=O)CC3CC3)ccc2[nH]1` (stereo unspecified) is lower in melting point: > 270 °C for the first, 223 to 224 °C for the second.

First: CSCCCCCn1c(C)nc2c(N)nc(C)c(C)c21
Second: CCCCc1nc(Cl)c(CC(=O)O)c(Cc2ccc(-c3ccccc3C(=O)O)cc2)n1
The melting point of the first is higher: 121 to 122 °C for the first, 100 to 110 °C for the second.

`CC(C)=CCC[C@H](C)CC(=NO)C(C[C@@H](C)CCC=C(C)C)=NO` showed a melting point of 131 to 132 °C.
